Patent US20170000133A1, “BENZOXABOROLE FUNGICIDES” (SYNGENTA PARTICIPATIONS AG, priority 2013, published 2017)

Experiments:
Pythium ultimum = Pythium ultimum / liquid culture (seedling damping off); format: cell-based; details: Globisporangium ultimum; 200 ppm; potato dextrose broth, 24° C., 2-3 days after application; read-out: disease control (inhibition of growth determined photometrically)
Gaeumannomyces graminis = Gaeumannomyces graminis / liquid culture (take-all of cereals); format: cell-based; details: PDB potato dextrose broth, 24° C., 4-5 days after application, read-out: disease control (inhibition of growth determined photometrically)
How it was run: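 Cryo-stored mycelial fragments in potato dextrose broth exposed to compound in DMSO at 200 ppm. Incubated at 24 °C; growth inhibition read photometrically 4–5 days after application.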

Plasmopara viticola = assay: whole plant or invertebrate; format: in vivo; details: foliar, read-out: disease control
Fusarium culmorum = assay: microbe, parasite or virus in culture; format: cell-based; details: read-out: disease control (inhibition of growth determined visually)
[1] = test system: Mycosphaerella graminicola (Septoria tritici); assay: Mycosphaerella graminicola (Septoria tritici) / liquid culture (Septoria blotch); format: cell-based; details: Zymoseptoria tritici, PDB potato dextrose broth, 24° C., 4-5 days after application, read-out: disease control (inhibition of growth determined photometrically)
How it was run: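 Conidia from cryostorage were suspended in potato dextrose broth and added to test compound in DMSO at 200 ppm in microtiter wells. Plates were incubated at 24° C and growth inhibition measured photometrically 4-5 days after application.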

[2] = test system: Thanatephorus cucumeris (Rhizoctonia solani); assay: Thanatephorus cucumeris (Rhizoctonia solani) / liquid culture (foot rot, damping-off); format: cell-based; details: PDB potato dextrose broth, 24° C., 3-4 days after application, read-out: disease control (inhibition of growth determined photometrically)
How it was run: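 Mycelial fragments from fresh liquid culture were suspended in potato dextrose broth and added to compound in DMSO at 200 ppm. After 3-4 days at 24 °C, growth inhibition was measured photometrically.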

[3] = test system: Monographella nivalis (Microdochium nivale); assay: Monographella nivalis (Microdochium nivale) / liquid culture (foot rot cereals); format: cell-based; details: PDB potato dextrose broth, 24° C., 4-5 days after application, read-out: disease control (inhibition of growth determined photometrically)
[4] = test system: Glomerella lagenarium (Colletotrichum lagenarium); assay: Glomerella lagenarium (Colletotrichum lagenarium) / liquid culture (anthracnose); format: cell-based; details: Colletotrichum orbiculare, PDB potato dextrose broth, 24° C., 3-4 days after application, read-out: disease control (inhibition of growth measured photometrically)
Procedure: 11. Glomerella lagenarium (Colletotrichum lagenarium)/Liquid Culture (Anthracnose): Conidia of the fungus from cryogenic storage were directly mixed into nutrient broth (PDB potato dextrose broth). After placing a DMSO solution of test compound into a 96-well microtiter plate at an application rate of 200 ppm, the nutrient broth containing the fungal spores was added. The test plates were incubated at 24° C. and the inhibition of growth was measured photometrically 3-4 days after application.

[5] = test system: Mycosphaerella arachidis (Cercospora arachidicola); assay: Mycosphaerella arachidis (Cercospora arachidicola) / liquid culture (early leaf spot); format: cell-based; details: PDB potato dextrose broth, 24° C., 4-5 days after application, read-out: disease control (inhibition of growth determined photometrically)
How it was run: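 Conidia from cryogenic storage mixed into potato dextrose broth and added to compound at 200 ppm in DMSO. Incubation at 24° C.; growth inhibition read photometrically 4-5 days after application.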

| SMILES | inhibition at 200 ppm (Pythium ultimum) | inhibition at 200 ppm (Gaeumannomyces graminis) | pest or weed control at 200 ppm (Plasmopara viticola) | inhibition at 200 ppm (Fusarium culmorum) | inhibition at 200 ppm [1] | inhibition at 200 ppm [2] | inhibition at 200 ppm [3] | inhibition at 200 ppm [4] | melting point | inhibition at 200 ppm [5] |
| --- | --- | --- | --- | --- | --- | --- | --- | --- | --- | --- |
| C#CCOC(=O)c1cc2c(cc1F)COB2O [Compound 381] | ≥ 80% | ≥ 80% | ≥ 80% | ≥ 80% | ≥ 80% | ≥ 80% | ≥ 80% | ≥ 80% |  |  |
| COC(COC(=O)c1ccc2c(c1)B(O)OC2)OC [Compound 443] | ≥ 80% |  |  |  |  |  |  |  | 110 to 112 °C |  |
| CON(C)C(=O)c1cc2c(cc1F)COB2O [Compound 51] | ≥ 80% |  |  |  |  |  |  |  | 144 to 146 °C |  |
| CC(=O)C(C)OC(=O)c1cc2c(cc1F)COB2O (stereo not shown) [Compound 445] | ≥ 80% |  |  |  |  |  |  |  | 108 to 110 °C |  |
| COC(CNC(=O)c1ccc2c(c1)B(O)OC2)OC [Compound 242] | ≥ 80% |  |  |  |  |  |  |  | 148 to 150 °C |  |
| O=C(OCCOc1ccc(Cl)cc1)c1cc2c(cc1Cl)COB2O [Compound 226] | ≥ 80% | ≥ 80% | ≥ 80% | ≥ 80% | ≥ 80% | ≥ 80% | ≥ 80% | ≥ 80% |  | ≥ 80% |
| C#CCCCOC(=O)c1ccc2c(c1)B(O)OC2 [Compound 334] | ≥ 80% | ≥ 80% | ≥ 80% | ≥ 80% | ≥ 80% | ≥ 80% | ≥ 80% | ≥ 80% |  | ≥ 80% |
| O=C(OCC(Cl)(Cl)Cl)c1cc2c(cc1Cl)COB2O [Compound 197] | ≥ 80% |  |  | ≥ 80% | ≥ 80% | ≥ 80% | ≥ 80% | ≥ 80% |  | ≥ 80% |
| O=C(OC1CSC1)c1ccc2c(c1)B(O)OC2 [Compound 362] | ≥ 80% | ≥ 80% |  | ≥ 80% | ≥ 80% | ≥ 80% | ≥ 80% |  |  | ≥ 80% |
| CC(=O)C(C)OC(=O)c1ccc2c(c1)B(O)OC2 (stereo not shown) [Compound 447] | ≥ 80% | ≥ 80% |  |  |  |  | ≥ 80% |  | 110 to 112 °C |  |
| O=C(OC1CCC1)c1cc2c(cc1Cl)COB2O [Compound 205] | ≥ 80% | ≥ 80% |  | ≥ 80% | ≥ 80% | ≥ 80% | ≥ 80% | ≥ 80% |  | ≥ 80% |
| O=C(OCCO)c1ccc2c(c1)B(O)OC2 [Compound 244] | ≥ 80% |  |  |  |  |  | ≥ 80% |  | 122 to 124 °C |  |
| COC(CNC(=O)c1cc2c(cc1Cl)COB2O)OC [Compound 435] |  |  |  |  |  |  |  |  | 150 to 152 °C |  |
| O=C(OCCO)c1cc2c(cc1F)COB2O [Compound 243] | ≥ 80% |  |  |  |  |  |  |  | 274 to 276 °C |  |
| C=CCCOC(=O)c1cc2c(cc1Cl)COB2O [Compound 203] | ≥ 80% | ≥ 80% |  | ≥ 80% | ≥ 80% | ≥ 80% | ≥ 80% | ≥ 80% |  | ≥ 80% |
| O=C(OCc1ccc(C(F)(F)F)nc1)c1ccc2c(c1)B(O)OC2 [Compound 343] | ≥ 80% | ≥ 80% | ≥ 80% |  | ≥ 80% | ≥ 80% | ≥ 80% | ≥ 80% |  | ≥ 80% |
| CC(=O)COC(=O)c1cc2c(cc1F)COB2O [Compound 448] | ≥ 80% |  |  |  |  |  | ≥ 80% |  | 122 to 124 °C |  |

| SMILES | inhibition at 200 ppm (Pythium ultimum) | inhibition at 200 ppm (Gaeumannomyces graminis) | pest or weed control at 200 ppm (Plasmopara viticola) | inhibition at 200 ppm (Fusarium culmorum) | inhibition at 200 ppm [1] | inhibition at 200 ppm [2] | inhibition at 200 ppm [3] | inhibition at 200 ppm [4] | melting point | inhibition at 200 ppm [5] |
| --- | --- | --- | --- | --- | --- | --- | --- | --- | --- | --- |
| O=C(OCC1CCC1)c1cc2c(cc1F)COB2O [Compound 413] | ≥ 80% | ≥ 80% |  | ≥ 80% | ≥ 80% | ≥ 80% | ≥ 80% |  |  |  |
| O=C(Oc1ccccn1)c1cc2c(cc1F)COB2O [Compound 442] | ≥ 80% |  |  |  |  | ≥ 80% | ≥ 80% |  | 213 to 215 °C |  |
| O=C(OCC(Cl)(Cl)Cl)c1cc2c(cc1F)COB2O [Compound 382] | ≥ 80% | ≥ 80% | ≥ 80% |  | ≥ 80% | ≥ 80% | ≥ 80% | ≥ 80% |  | ≥ 80% |
| COc1ccc(OCCOC(=O)c2ccc3c(c2)B(O)OC3)cc1 [Compound 344] | ≥ 80% | ≥ 80% | ≥ 80% | ≥ 80% | ≥ 80% | ≥ 80% | ≥ 80% | ≥ 80% |  | ≥ 80% |
| O=C(OC1CCC1)c1ccc2c(c1)B(O)OC2 [Compound 332] | ≥ 80% |  | ≥ 80% | ≥ 80% | ≥ 80% | ≥ 80% | ≥ 80% |  |  | ≥ 80% |
| O=C(OCCc1c(Cl)cccc1Cl)c1cc2c(cc1Cl)COB2O [Compound 240] | ≥ 80% | ≥ 80% | ≥ 80% |  | ≥ 80% | ≥ 80% | ≥ 80% | ≥ 80% |  | ≥ 80% |
| COC(CNC(=O)c1cc2c(cc1F)COB2O)OC [Compound 53] | ≥ 80% |  |  |  |  |  |  |  | 150 to 152 °C |  |
| NC(=O)c1cc2c(cc1F)COB2O [Compound 436] | ≥ 80% |  |  |  |  |  |  |  | 216 to 218 °C |  |
| COC(COC(=O)c1cc2c(cc1F)COB2O)OC [Compound 444] | ≥ 80% |  |  |  |  |  |  |  | 109 to 111 °C |  |
| O=C(OCCc1c(Cl)cccc1Cl)c1cc2c(cc1F)COB2O [Compound 433] |  | ≥ 80% | ≥ 80% | ≥ 80% |  | ≥ 80% | ≥ 80% |  |  |  |
| C#CCCOC(=O)c1cc2c(cc1Cl)COB2O [Compound 229] | ≥ 80% | ≥ 80% |  | ≥ 80% | ≥ 80% | ≥ 80% | ≥ 80% | ≥ 80% |  | ≥ 80% |
| C=CCCOC(=O)c1ccc2c(c1)B(O)OC2 [Compound 329] | ≥ 80% | ≥ 80% | ≥ 80% | ≥ 80% | ≥ 80% | ≥ 80% | ≥ 80% |  |  | ≥ 80% |
| C[Si](C)(C)C#CCOC(=O)c1cc2c(cc1F)COB2O [Compound 430] | ≥ 80% | ≥ 80% | ≥ 80% | ≥ 80% | ≥ 80% | ≥ 80% |  |  |  | ≥ 80% |
| CC(=O)COC(=O)c1cc2c(cc1Cl)COB2O [Compound 450] | ≥ 80% | ≥ 80% | ≥ 80% |  |  |  |  |  | 134 to 136 °C |  |
| O=C(OCc1ccco1)c1ccc2c(c1)B(O)OC2 [Compound 336] | ≥ 80% | ≥ 80% | ≥ 80% | ≥ 80% | ≥ 80% | ≥ 80% | ≥ 80% | ≥ 80% |  | ≥ 80% |
| C=CCOC(=O)c1cc2c(cc1F)COB2O [Compound 403] | ≥ 80% | ≥ 80% | ≥ 80% |  | ≥ 80% | ≥ 80% | ≥ 80% | ≥ 80% |  | ≥ 80% |
| O=C(OCCO)c1cc2c(cc1Cl)COB2O [Compound 440] | ≥ 80% |  |  |  |  |  |  |  | 270 to 272 °C |  |
